Measured values: patent US20130224164A1, “Environmental Clostridial Bacteriotherapy and Related Formulations and Methods of Manufacture and Use” (VIROPHARMA INCORPORATED, priority 2010, published 2013)

Test system: healthy subjects ≧60 years of age
Assay: Adverse events during oral vancomycin pre-treatment period of the Phase 1 study
Format: in vivo, human
Experimental: VP20621 (10^4, 10^6, or 10^8 spores) or placebo were administered as a single dose to subjects age 18-45 (Group 1) or ≧60 years of age (Group 2). In Group 3, an oral suspension of 10^8 spores or placebo was administered twice daily for five days to patients≧60 years in age. In Group 4, subjects≧60 years of age received 5 days of oral vancomycin followed by 14 days of once daily VP20621 (10^4, 10^6, or 10^8 spores) or placebo. All subjects were followed through day 28. C. difficile stool cultures were performed at various time points. C. difficile isolates were tested for the production of toxin by enzyme immunoassay.
Purified VP 20621 (spores of a non-toxigenic strain of C. difficile) were produced in a liquid culture medium free of animal-derived components. VP 20621 was administered as an oral liquid suspension. The potency of the drug is based on the viable count of the spores.
Forty-three (43) subjects were pre treated with vancomycin to ensure that a sufficient number of subjects would be available for randomization to achieve the planned target sample size of 36. Twelve (28%) of the 43 subjects had adverse events during the vancomycin pre treatment period (Table 1).

[1] = vancomycin pre-treatment, N = 43

SMILES: CN[C@H](CC(C)C)C(=O)N[C@H]1C(=O)N[C@@H](CC(N)=O)C(=O)N[C@H]2C(=O)N[C@H]3C(=O)N[C@H](C(=O)N[C@H](C(=O)O)c4cc(O)cc(O)c4-c4cc3ccc4O)[C@H](O)c3ccc(c(Cl)c3)Oc3cc2cc(c3O[C@@H]2O[C@H](CO)[C@@H](O)[C@H](O)[C@H]2O[C@H]2C[C@](C)(N)[C@H](O)[C@H](C)O2)Oc2ccc(cc2Cl)[C@H]1O [Vancomycin, vancomycin]
- Subjects with a gastrointestinal adverse effect (Group 4, during pre-treatment with vancomycin): 16%
- Subjects with mild diarrhea or loose/watery stools (Group 4, during pre-treatment with vancomycin (3/43)): 7%
- Subjects with adverse events (vancomycin pre treatment period, twelve of 43 subjects): 28%
- Gastrointestinal AEs: Abdominal distention [1]: 1 (2%)
- Gastrointestinal AEs: Abdominal pain [1]: 2 (5%)
- Gastrointestinal AEs: Flatulence [1]: 1 (2%)
- Gastrointestinal AEs: Gingival bleeding [1]: 1 (2%)
- Gastrointestinal AEs: Oral paresthesia [1]: 1 (2%)
- Gastrointestinal AEs: Toothache [1]: 1 (2%)
- Gastrointestinal AEs: Vomiting [1]: 1 (2%)
- Other AEs: Dizziness [1]: 2 (5%)
- Other AEs: Dry skin [1]: 1 (2%)
- Other AEs: Malaise [1]: 1 (2%)
- Other AEs: Pruritis [1]: 1 (2%)
- Other AEs: Rash [1]: 1 (2%)
- Gastrointestinal AEs: Diarrhea (vancomycin pre-treatment, oral 125 mg QID Days −5 to −1, N = 43): 3 (7%)
